# Test results reported in patent US20220175811A1, “STABLE FORMULATIONS OF CYCLIC DINUCLEOTIDE STING AGONIST COMPOUNDS AND METHODS OF USE THEREOF” (Merck Sharp & Dohme Corp., priority 2019, published 2022).
# Test: Forced stress screen (AIBN, peroxide, 0.1N NaOH)
# Format: physicochemical
# Method: 0.05 mg/mL stock solutions of Compound A were prepared by adding […] of Compound A to a 50 mL volumetric flask and diluted to volume with either 50/50 water/methanol (stock solution A), or 50/50 water/acetonitrile (stock solution B).
# An azobisisobutyronitrile (AIBN) stress solution was prepared by dissolving 7.77 mg of AIBN in 10 mL of stock solution A in an amber volumetric flask and sonicating to dissolve. The AIBN control solution was prepared by dissolving 8.48 mg of AIBN in 10 mL of 50/50 methanol/water in an amber volumetric flask. Both solutions were placed in an oven at 40° C. for 24 hours.
# A peroxide stress solution was prepared by adding 1.0 mL of 3% hydrogen peroxide to 9.0 mL of stock solution A in a volumetric flask. An aliquot of the solution was placed into an amber vial kept at room temperature, and another aliquot was stored at 5° C. for 24 hours. The peroxide control solution was prepared by adding 1.0 mL of 3% hydrogen peroxide to 9.0 mL 50/50 methanol/water in an amber volumetric flask. This solution was kept at room temperature for 24 hours.
# A 0.1N NaOH stress solution was prepared by adding 1.0 mL of 1N sodium hydroxide to 9.0 mL of stock solution B in an amber volumetric flask. One sample was kept at room temperature, and the identical sample was placed in an oven at 60° C. for 24 hours. A 0.1N NaOH control solution was prepared by adding 1.0 mL of 1N sodium hydroxide to 9.0 mL of 50/50 acetonitrile/water in an amber volumetric flask.
# No major degradation was observed under AIBN or 0.1N NaOH base stress. […] The percent of Compound A was calculated based on the area count of active peak in the control samples compared to stress samples.
structure (smiles),measurement,setting,value
"Nc1nc2c(ncn2[C@@H]2O[C@@H]3CO[P@@](=O)(S)O[C@H]4[C@H](F)[C@H](n5cnc6c(N)ncnc65)O[C@@H]4CO[P@@](=O)(S)O[C@@H]2[C@@H]3F)c(=O)[nH]1 (single isomer, unassigned) [Compound A]",Sensitive for Hydrolysis or Oxidation,"0.1 N NaOH base stress, in 0.1 N NaOH after 24h/RT",No sensitivity; <5% drug loss
same,Sensitive for Hydrolysis or Oxidation,AIBN stress,No sensitivity; <5% drug loss
same,Sensitive for Hydrolysis or Oxidation,Peroxide stress at 5° C.,High sensitivity; >10% drug loss
same,Sensitive for Hydrolysis or Oxidation,Peroxide stress at RT,High sensitivity; >10% drug loss
same,Sensitivity to two-electron oxidative processes,forced stress,highly sensitive
